Where a name gives a salt, the structure may show the parent alone.

AC50 cell viability and efficacy data for 24 compounds are collected here from the supplement of paper PMC10290057.

Assay [1] relates to HCT116. Kind of assay: AC50 cell viability (CellTiter-Glo); higher = less potent. As to conditions: 48 h. In general terms: ATP-based viability assays read luminescence as a measure of living cells.
Assay [2] relates to HCT116. Kind of assay: efficacy (fitted maximal change in viability relative to DMSO control); higher = less cytotoxic (negative = loss of viability). The conditions noted are these: 48 h.
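Throughout, for AC50 cell viability (CellTiter-Glo): HCT116 colorectal carcinoma cells screened at five concentrations per compound, luminescent viability scaled between DMSO wells and empty wells on each plate, curves fitted per compound.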
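Throughout, for efficacy (fitted maximal change in viability relative to DMSO control): Luminescence-based viability readout, five doses per compound, normalized against on-plate DMSO and empty-well controls, followed by dose-response curve fitting for every drug.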

For `C#Cc1cccc(Nc2ncnc3cc(OCCOC)c(OCCOC)cc23)c1` [Erlotinib], the AC50 cell viability in the assay on HCT116 [1] is 9.34 µM. For the same compound, the efficacy with HCT116 [2] was -47.1%.

For the compound `Oc1ccc([C@@H]2Oc3ccc(O)cc3[C@@H]3CCC[C@@H]32)cc1` [Erteberel], the AC50 cell viability with HCT116 [1] was determined as 7.42 µM. The efficacy with HCT116 [2] was -73.8%.

With `C[C@]12CC[C@@H]3c4ccc(O)cc4CC[C@H]3[C@@H]1CC[C@@H]2O` [Estradiol], the AC50 cell viability with HCT116 [1] was found to be 20.9 µM. Further, the efficacy with HCT116 [2] was -60.4%.

As for `CCOC(=O)[C@@]1(CCCCCCOc2ccc(Cl)cc2)CO1` [Etomoxir], the AC50 cell viability with HCT116 [1] came to 18.6 µM. The efficacy in the assay with HCT116 [2] is -42.1%.

In turn, `COc1cc([C@@H]2c3cc4c(cc3[C@@H](O[C@@H]3O[C@@H]5CO[C@@H](C)O[C@H]5[C@H](O)[C@H]3O)[C@H]3COC(=O)[C@H]23)OCO4)cc(OC)c1O` [Etoposide] showed an AC50 cell viability with HCT116 [1] of 2.95 µM. The efficacy in the assay with HCT116 [2] is -41.9%.

In the assay on HCT116 [1], `C=CC(=O)N1CCC(CNc2ncnc(N)c2-c2ccc(Oc3ccccc3)cc2)CC1` [Evobrutinib] displayed an AC50 cell viability of 4.68 µM. The efficacy in the assay on HCT116 [2] was -43.5%.

In the case of `CN1c2ccccc2C(=O)N2CCc3c([nH]c4ccccc34)C21` (stereo not drawn) [Evodiamine], the AC50 cell viability in the assay with HCT116 [1] came out at 1.66 µM. Also, the efficacy with HCT116 [2] was -64.2%.

As to `CC[C@@]1(O)C(=O)OC/C2=C1/C=C3\N(CC4=C5[C@@H](N)CCC6=C5C(=CC(=C6C)F)N=C34)C2=O` [Exatecan], the AC50 cell viability in the assay on HCT116 [1] worked out at 0.0417 µM. Further, the efficacy with HCT116 [2] is -64%.

`C[C@]12CC[C@H]3[C@@H](CC(=C)\C4=C\C(=O)\C=C/[C@]34C)[C@@H]1CCC2=O` [Exemestane] had an AC50 cell viability in the assay with HCT116 [1] of 18.6 µM. In addition, the efficacy in the assay with HCT116 [2] is -65%.

Compound `C=CC[C@@H]1/C=C(\C)C[C@H](C)C[C@H](OC)[C@H]2O[C@@](O)(C(=O)C(=O)N3CCCC[C@H]3C(=O)O[C@H](/C(C)=C/[C@@H]3CC[C@@H](O)[C@H](OC)C3)[C@H](C)[C@@H](O)CC1=O)[C@H](C)C[C@@H]2OC` [FK-506] yielded an AC50 cell viability in the assay on HCT116 [1] of 23.5 µM. For the same compound, the efficacy with HCT116 [2] was -91.2%.

With `CCN1C(=O)\C(=C/C2=C1N=C(NC3=CC=C(N4CCNCC4)C(=C3)F)N=C2)C5=CC=C(Cl)C=C5Cl` [FRAX-486], the AC50 cell viability in the assay with HCT116 [1] was 2.63 µM. Also, in the assay on HCT116 [2], the efficacy was -32.6%.

In the assay with HCT116 [1], `CCN1C(=O)\C(=C/C2=CN=C(NC3=CC=C(C=C3)N4CCN(C)CC4)N=C12)C5=C(Cl)C=C(C=C5)C6=CN=CS6` [FRAX-597] registered an AC50 cell viability of 5.9 µM. Moreover, in the assay on HCT116 [2], the efficacy was -59%.

For `CCOC(=N)c1nc2ccc3ncnc(Nc4cc(F)c(F)cc4Cl)c3c2s1` [FX-9847], the AC50 cell viability in the assay with HCT116 [1] came out at 4.68 µM. Further, the efficacy in the assay on HCT116 [2] is -41.6%.

The compound `O=C1c2ccccc2-[n+]2ccc3c([nH]c4ccccc43)c21` [Fascaplysin] registered an AC50 cell viability in the assay with HCT116 [1] of 0.742 µM. Further, the efficacy in the assay on HCT116 [2] was -88.3%.

Consider `O=[S+]([O-])(c1cccc2cnccc12)N1CCCNCC1` [Fasudil hydrochloride], for which the AC50 cell viability in the assay with HCT116 [1] turned out to be 18.6 µM. The efficacy in the assay on HCT116 [2] was -49.1%.

As for `COC(=O)Nc1nc2cc(Sc3ccccc3)ccc2[nH]1` [Fenbendazole], the AC50 cell viability with HCT116 [1] was found to be 1.05 µM. Also, the efficacy in the assay on HCT116 [2] was -79.7%.

Take `CC1=C(/C=C/C(C)=C/C=C/C(C)=C/C(=O)Nc2ccc(O)cc2)C(C)(C)CCC1` [Fenretinide]: the AC50 cell viability with HCT116 [1] came to 23.5 µM. The efficacy in the assay with HCT116 [2] was -84.3%.

The compound `Clc1ccc(C(Cn2ccnc2)OCc2ccc(Sc3ccccc3)cc2)c(Cl)c1` (stereo not drawn) [Fenticonazole nitrate] showed an AC50 cell viability in the assay on HCT116 [1] of 20.9 µM. The efficacy in the assay with HCT116 [2] was -90.5%.

In the assay with HCT116 [1], `CON(C)C(=O)N1/N=C(S[C@@]1(CCCN)C2=CC=CC=C2)/C3=CC(=CC=C3F)F` [Filanesib] registered an AC50 cell viability of 20.9 µM. The efficacy with HCT116 [2] is -42.1%.

With `O=C(Nc1nc2cccc(-c3ccc(CN4CC[S+](=O)([O-])CC4)cc3)n2n1)C1CC1` [Filgotinib], in the assay with HCT116 [1], the AC50 cell viability is 7.42 µM. In addition, the efficacy with HCT116 [2] was -70.1%.

In turn, `CCCCCCCCc1ccc(CCC(N)(CO)CO)cc1` [Fingolimod hydrochloride] showed an AC50 cell viability in the assay with HCT116 [1] of 20.9 µM. For the same compound, the efficacy in the assay with HCT116 [2] is -105%.

Take `CN1CC[C@H]([C@@H](O)C1)C2=C(O)C=C(O)C3=C2O\C(=C/C3=O)C4=CC=CC=C4Cl` [Flavopiridol]: the AC50 cell viability in the assay on HCT116 [1] was determined as 0.186 µM. Further, the efficacy with HCT116 [2] was -63.7%.

Compound `OC[C@H]1O[C@H](C[C@@H]1O)N2\C=C(F)/C(=O)NC2=O` [Floxuridine] showed an AC50 cell viability in the assay on HCT116 [1] of 0.235 µM. Further, the efficacy in the assay on HCT116 [2] was -82.9%.

`COC(=O)Nc1nc2cc(C(=O)c3ccc(F)cc3)ccc2[nH]1` [Flubendazole] returned an AC50 cell viability with HCT116 [1] of 0.468 µM. Further, the efficacy in the assay on HCT116 [2] is -54.4%.
